# Read-outs that look alike come from different tables or passages of the source.
# Legend:
# [1] = biological target: T1, GD2-KH (shortened B. subtilis EngA variant) (Bacillus subtilis, UniProt P50743); experiment: Nucleotide binding monitored by intrinsic tryptophan fluorescence
# T1 construct: two shortened EngA variants that only contain GD1 or GD2-KH; His-tag (from pET15b; purified on Ni-IDA) (N); made in house; host or cells: E. coli C41(DE3)
# Method: (§1) Fluorescence measurements were performed essentially as described previously for the unmodified nucleotides or the N-methylanthraniloyl-GDP (MANT-GDP) analogue using a PTI QuantaMaster 4 spectrofluorimeter, [62]. Dissociation constants (K D) for nucleotides were calculated by monitoring intrinsic tryptophan fluorescence variation using 295 nm excitation wavelength, with a slit width of 2 nm, and scanning emission fluorescence between 310 and 400 nm (for the unmodified nucleotide) or 400 and 500 nm (for MANT-GDP), with a slit width of 4 nm. For the intrinsic tryptophan fluorescence, inner filter effect was corrected using N-Acetyltryptophanamide (NATA) as a reference. 1 µM NATA or 0.5 µM of YphC were mixed with 50 mM Tris/HCl pH 8, 2 mM MgCl2, NaCl or KCl and increasing amount of nucleotide (GDP, GMPPNP or MANT-GDP), as indicated in the figure legends. The fluorescence was normalized respective to the integrated value of the fluorescence peak obtained in the absence of unmodified nucleotide (between 310 and 400 nm) or MANT-GDP (between 400 and 500 nm). The data were fitted using the GraFit 5.0.11 software with the following equation: [drawing 1] where F is the relative fluorescence intensity in the presence of nucleotide, F min is the relative fluorescence in the absence of nucleotide, F max is the fluorescence intensity at saturating concentration of nucleotide, L is the nucleotide concentration, E is the protein concentration and K D is the dissociation constant of the protein-nucleotide complex.
# B. subtilis EngA [2] = biological target: T2, B. subtilis EngA (Bacillus subtilis, UniProt P50743); experiment: as above
# T2 construct: full-length EngA (named hereafter as EngA) and its two shortened EngA variants, GD1 and GD2-KH were overexpressed in E. coli; His-tag (from pET15b; purified on Ni-IDA) (N); made in house; host or cells: E. coli C41(DE3)
# T2 sequence (P50743 1-436): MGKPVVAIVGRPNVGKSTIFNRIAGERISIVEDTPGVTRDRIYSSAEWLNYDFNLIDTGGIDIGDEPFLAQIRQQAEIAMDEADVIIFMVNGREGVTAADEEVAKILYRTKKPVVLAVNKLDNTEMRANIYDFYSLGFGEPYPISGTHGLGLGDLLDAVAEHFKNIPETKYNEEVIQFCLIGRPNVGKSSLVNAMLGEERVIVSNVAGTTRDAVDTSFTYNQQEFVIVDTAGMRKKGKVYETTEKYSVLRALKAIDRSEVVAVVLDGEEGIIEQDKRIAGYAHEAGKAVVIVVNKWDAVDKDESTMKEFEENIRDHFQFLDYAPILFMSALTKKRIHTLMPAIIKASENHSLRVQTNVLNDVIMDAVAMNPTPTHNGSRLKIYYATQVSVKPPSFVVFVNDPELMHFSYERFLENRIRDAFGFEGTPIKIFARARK
# Method: as §1
# [3] = biological target: T3, GD1 (shortened B. subtilis EngA variant) (Bacillus subtilis, UniProt P50743); experiment: as above
# T3 construct: two shortened EngA variants that only contain GD1 or GD2-KH; His-tag (from pET15b; purified on Ni-IDA) (N); made in house; host or cells: E. coli C41(DE3)
# Method: as §1
# S. typhimurium EngA = biological target: S. typhimurium EngA; set-up: method as in PMID 17905831; conditions: cited from earlier work
# GD2-KH [4] = biological target: T4, GD2-KH (Bacillus subtilis, UniProt P50743); experiment: Fluorescence-based Thermal Shift Assay (TSA); format: binding; conditions: for Tm: GD2-KH with 1 mM nucleotide, no effector Tm 42.8
# T4 construct: two shortened EngA variants that only contain GD1 or GD2-KH; His-tag (from pET15b; purified on Ni-IDA) (N); made in house; host or cells: E. coli C41(DE3)
# T4 sequence (P50743 173-436): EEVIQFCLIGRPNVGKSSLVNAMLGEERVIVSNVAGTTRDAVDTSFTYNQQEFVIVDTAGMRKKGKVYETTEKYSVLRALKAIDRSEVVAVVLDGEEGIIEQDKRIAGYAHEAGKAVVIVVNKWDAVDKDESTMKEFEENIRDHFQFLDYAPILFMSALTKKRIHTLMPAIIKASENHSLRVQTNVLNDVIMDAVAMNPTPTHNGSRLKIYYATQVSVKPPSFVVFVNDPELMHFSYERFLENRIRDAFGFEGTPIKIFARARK
# Method: (§2) Assays were performed into a 96-well thin-wall PCR plate (BioRad) using an IQ5 96-well format real-time PCR instrument (Bio-Rad) over a temperature range from 20°C to 90°C with temperature increments of 0.2°C [64]. Assay samples (23 µl) contained 50 mM Tris/HCl pH 8, 0.5 mg/ml of EngA or 1.5 mg/ml of GD1 or GD2-KH, and concentration of salt and/or nucleotides as indicated, and 2 µl of SYPRO Orange solution (Molecular Probes, Eugene, OR, 500x in DMSO diluted 5 times in water) was added. The plates were heated and changes in fluorescence for the environmentally sensitive dye SYPRO Orange were monitored through a charge-coupled device (CCD) camera. The melting temperature (Tm) values for each protein were determined graphically from the fluorescence first derivative of the melting curves. The wavelengths for excitation and emission were 470 nm and 570 nm, respectively.
# GD1 [5] = biological target: T5, GD1 (Bacillus subtilis, UniProt P50743); experiment: Fluorescence-based Thermal Shift Assay (TSA); format: binding; conditions: for Tm: GD1 with 1 mM nucleotide, no effector Tm 51
# T5 construct: two shortened EngA variants that only contain GD1 or GD2-KH; His-tag (from pET15b; purified on Ni-IDA) (N); made in house; host or cells: E. coli C41(DE3)
# T5 sequence (P50743 4-167 limits assumed): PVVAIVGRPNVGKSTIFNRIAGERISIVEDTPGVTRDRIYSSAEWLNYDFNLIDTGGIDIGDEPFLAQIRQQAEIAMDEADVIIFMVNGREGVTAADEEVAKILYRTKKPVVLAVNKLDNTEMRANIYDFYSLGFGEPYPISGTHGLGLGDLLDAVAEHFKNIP
# Method: as §2
# EngA = biological target: T6, EngA (Bacillus subtilis, UniProt P50743); experiment: Fluorescence-based Thermal Shift Assay (TSA); format: binding; conditions: EngA with 1 mM nucleotide; no effector Tm 41.5
# T6 construct: full-length EngA (named hereafter as EngA) and its two shortened EngA variants, GD1 and GD2-KH were overexpressed in E. coli; His-tag (from pET15b; purified on Ni-IDA) (N); made in house; host or cells: E. coli C41(DE3)
# T6 sequence (P50743 1-436): T2 sequence (P50743 1-436)
# Method: as §2
# E. coli EngA = system: E. coli EngA; set-up: method as in PMID 16963571; conditions: cited from earlier work
# T. maritima EngA = conditions: cited from earlier work
# GD2-KH [6] = biological target: T4, GD2-KH; experiment: GTP hydrolysis coupled-enzymatic assay; format: biochemical; conditions: GD2-KH, absence of K+
# Method: (§3) GTPase activities were determined using a coupled-enzymatic assay containing pyruvate kinase and lactate dehydrogenase as previously described. The proteins (2 µM or 8 µM of EngA in the presence of KCl or NaCl, respectively, and 4 µM for GD1 and 12.5 µM for GD2-KH) and the coupled assay system containing 50 mM Tris/HCl pH 8, 4 mM phosphoenol pyruvate, 0.4 mM NADH, 1 mM MgCl2, 30 µg pyruvate kinase and 15 µg lactate dehydrogenase, were mixed into a quartz cuvette (final volume of 750 µl) in the presence of GTP (up to 1 mM) and salts, either KCl or NaCl, as indicated in the figure legends. When the GTPase and XTPase activities of the wild-type EngA and the single point mutants were studied (Fig. 7), the assay medium (final volume of 500 µl) contained 3 mM MgCl2 and the pyruvate kinase was increased to 120 µg to ensure an immediate conversion of XDP back into XTP. The reaction was started by adding 3.2 µM or 0.8 µM of wild-type EngA or single point mutants in the absence or presence of 300 mM K^+, respectively. GTP or XTP hydrolysis was monitored by following the change in absorbance at 340 nm upon conversion of NADH to NAD^+, for 10 min at 37°C, using either a Hitachi U3350 or a Safas UVmc^2 spectrophotometer. The slope measured (ΔDO/min) was used to calculate the activity of the protein taking into account the εNADH340nm = 6220 l.mol^−1.cm^−1. Control experiments were systematically performed in the absence of nucleotides (protein alone) or in the absence of proteins (nucleotides alone) and the activities measured in all cases were negligible. Between many different EngA preparations, the specific activities measured at 1 mM GTP varied between 100–130 nmoles/min/mg protein.
# GD1 [7] = biological target: T5, GD1; experiment: GTP hydrolysis coupled-enzymatic assay; format: biochemical; conditions: GD1, absence of K+
# Method: as §3
# B. subtilis EngA [8] = biological target: T7, B. subtilis EngA (Bacillus subtilis, UniProt P50743); format: biochemical; conditions: for Km / Vmax / kcat: GTP hydrolysis by EngA; for kcat: fitted; for GTPase activity corresponding to 100%: wild-type EngA, 300 mM KCl
# T7 construct: full-length EngA (named hereafter as EngA) and its two shortened EngA variants, GD1 and GD2-KH were overexpressed in E. coli; His-tag (from pET15b; purified on Ni-IDA) (N); made in house; host or cells: E. coli C41(DE3)
# Method: as §3
# M. smegmatis EngA = system: M. smegmatis EngA; set-up: method as in PMID 22506030; conditions: cited from earlier work
smiles,measurement,setting,value
Nc1nc2c(ncn2[C@@H]2O[C@H](COP(=O)(O)OP(=O)(O)O)[C@@H](O)[C@H]2O)c(=O)[nH]1 [GDP],Kd,[1]; 300 mM KCl,2.9 ± 0.8 µM
same,Kd,[1]; 300 mM NaCl,1.6 ± 0.2 µM
same,Kd,"B. subtilis EngA [2]; KD, 300 mM KCl",16.3 ± 2.3 µM
same,Kd,"B. subtilis EngA [2]; KD, 300 mM NaCl",12.8 ± 2.9 µM
same,Kd,"B. subtilis EngA [2]; KD, no salt (absence of K+), 2 mM MgCl2, 25°C",8 ± 1 µM
same,Kd,"[3]; GD1, 300 mM KCl",4.5 ± 0.9 µM
same,Kd,"[3]; GD1, 300 mM NaCl",2.7 ± 0.4 µM
same,Kd,S. typhimurium EngA; both G-domains,1 to 3 µM
same,Tm,GD2-KH [4],55.8 °C
same,ΔTm at 1000 µM,"GD2-KH [4]; pH 8, read-out: Tm increase",~13 °C
same,Tm,GD1 [5],64 °C
same,ΔTm at 1000 µM,"GD1 [5]; pH 8, read-out: Tm increase",~13 °C
same,Tm,EngA,59.4 °C
Nc1nc2c(ncn2[C@@H]2O[C@H](COP(=O)(O)OP(=O)(O)NP(=O)(O)O)[C@@H](O)[C@H]2O)c(=O)[nH]1 [GMPPNP],Kd,[1]; 300 mM KCl,6.8 ± 2 µM
same,Kd,[1]; 300 mM NaCl,15.2 ± 1.3 µM
same,Kd,"B. subtilis EngA [2]; 300 mM KCl, read-out: KD",18.8 ± 2.8 µM
same,Kd,"B. subtilis EngA [2]; 300 mM NaCl, read-out: KD",16.5 ± 3.7 µM
same,Kd,"B. subtilis EngA [2]; no salt (absence of K+), 2 mM MgCl2, 25°C, read-out: KD",25.7 ± 2.8 µM
same,Kd,"[3]; GD1, 300 mM KCl",35.7 ± 4.9 µM
same,Kd,"[3]; GD1, 300 mM NaCl",17.8 ± 2.4 µM
same,Tm,GD2-KH [4],48.3 °C
same,Tm,GD1 [5],55.5 °C
same,Tm,EngA,48.8 °C
Nc1nc2c(ncn2[C@@H]2O[C@H](COP(=O)(O)OP(=O)(O)OP(=O)(O)O)[C@@H](O)[C@H]2O)c(=O)[nH]1 [GTP],kcat,E. coli EngA; 400 mM K+,0.0193 s⁻¹
same,Km,"E. coli EngA; GTP, E. coli EngA",143 µM
same,Kd,S. typhimurium EngA; higher-affinity site (proposed GD1),~12 µM
same,Kd,S. typhimurium EngA; lower-affinity site (proposed GD2),> 100 µM
same,kcat,T. maritima EngA; 400 mM K+,0.0145 s⁻¹
same,Km,"T. maritima EngA; GTP, T. maritima EngA",110 µM
same,GTPase activity,GD2-KH [6],0.004 min⁻¹
same,GTPase activity,GD1 [7],~0.6 min⁻¹
same,specific activity,"B. subtilis EngA [8]; 1 mM GTP, different EngA preparations",100–130 nmoles/min/mg protein
same,GTPase activity (kcat),"B. subtilis EngA [8]; EngA, absence of K+",0.005 to 0.0083 s⁻¹
same,Km,B. subtilis EngA [8]; 300 mM K+,153 µM
same,Vmax,B. subtilis EngA [8]; 300 mM K+,144.5±3.4 nmol/min/mg protein
same,kcat,B. subtilis EngA [8]; 300 mM K+,~0.123 s⁻¹
same,Vmax,B. subtilis EngA [8]; absence of K+,6.1±0.2 nmol/min/mg protein
same,Km,B. subtilis EngA [8]; no K+,111 µM
same,kcat,B. subtilis EngA [8]; no K+,~0.005 s⁻¹
same,GTPase activity corresponding to 100%,B. subtilis EngA [8]; 200 µM nucleotide,77 µmol GTP hydrolyzed/min/mg proteins
same,GTPase activity corresponding to 100%,B. subtilis EngA [8]; 1 mM GTP,100 µmol GTP hydrolyzed/min/mg proteins
same,Km,"M. smegmatis EngA; GTP, M. smegmatis EngA",39 µM
same,kcat,M. smegmatis EngA; absence of K+,8.3e-05 s⁻¹

# Source: paper PMC3466195, “Potassium Acts as a GTPase-Activating Element on Each Nucleotide-Binding Domain of the Essential Bacillus subtilis EngA” (PLoS ONE, 2012)
